Assay results as given in publication PMC4300089, “Structure-Guided Design of Selective Epac1 and Epac2 Agonists” (PLoS Biology, 2015).

Columns and labels:
Epac1 [1] = target: T1, Epac1 (Homo sapiens, UniProt O95398); parameters: method as in PMID 12888551; details: footnote c, see also ref 13; cited from earlier work
T1 construct: made in house
T1 sequence (O95398 150-881 isoform O95398-3): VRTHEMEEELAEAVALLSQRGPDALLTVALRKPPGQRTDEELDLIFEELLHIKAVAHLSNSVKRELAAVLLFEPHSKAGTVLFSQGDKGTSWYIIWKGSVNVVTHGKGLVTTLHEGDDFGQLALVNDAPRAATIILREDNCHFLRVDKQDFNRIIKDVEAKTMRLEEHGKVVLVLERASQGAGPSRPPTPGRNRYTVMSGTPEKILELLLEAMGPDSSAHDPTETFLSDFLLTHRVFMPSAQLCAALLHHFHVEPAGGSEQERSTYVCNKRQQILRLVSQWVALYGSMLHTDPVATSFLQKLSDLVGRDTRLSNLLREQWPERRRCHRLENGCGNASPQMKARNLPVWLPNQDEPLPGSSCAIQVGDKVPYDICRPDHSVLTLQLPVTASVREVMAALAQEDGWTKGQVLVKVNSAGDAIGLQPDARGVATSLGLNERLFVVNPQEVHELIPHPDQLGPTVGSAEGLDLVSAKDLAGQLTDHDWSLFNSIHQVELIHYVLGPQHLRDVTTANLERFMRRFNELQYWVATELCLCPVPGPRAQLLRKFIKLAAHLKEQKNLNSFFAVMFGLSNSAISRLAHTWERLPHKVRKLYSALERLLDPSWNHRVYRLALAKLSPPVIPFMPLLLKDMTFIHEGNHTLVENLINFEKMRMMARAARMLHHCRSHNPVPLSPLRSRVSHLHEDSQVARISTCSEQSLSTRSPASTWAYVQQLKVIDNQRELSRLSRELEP

PKA-Iβ = target: T2, PKA-Iβ (Homo sapiens, UniProt P31321); assay: PKA activity assay, PKA-Iβ; assay type: biochemical; details: for A (PKA activity): PKAIβ
T2 construct: made in house
Procedure: (§1) The recombinant human PKA catalytic subunit (Cα1) and the four human PKA regulatory subunits (RIα, RIβ, RIIα, RIIβ) were expressed, purified, and characterized as described. […] PKA holoenzymes were formed by mixing the R- and C-subunit at a molar ratio of 1.2:1 and extensive dialysis against 20 mM MOPS (pH 7.0), 150 mM NaCl, 2.5 mM β-mercaptoethanol, supplemented with 1 mM ATP and 10 mM MgCl2 for PKA-I at 4°C overnight. PKA holoenzymes were used at about 20 nM for the activation assay. The apparent activation constants (Kact) were determined by fitting the concentration-dependent activity to a sigmoid dose-response model.

PKA-IIβ = target: T3, PKA-IIβ (Homo sapiens, UniProt P31323); assay: PKA activity assay, PKA-IIβ; assay type: biochemical; details: for A (PKA activity): PKAIIβ
T3 construct: made in house
Procedure: as §1

PKA-IIα = target: T4, PKA-IIα (Homo sapiens, UniProt P13861); assay: PKA activity assay, PKA-IIα; assay type: biochemical; details: for A (PKA activity): PKAIIα
T4 construct: made in house
Procedure: as §1

PKA-Iα = target: T5, PKA-Iα (Homo sapiens, UniProt P10644); assay: PKA activity assay (coupled spectrophotometric, Kemptide), PKA-Iα; assay type: biochemical; details: for A (PKA activity): PKAIα
T5 construct: made in house
Procedure: as §1

Epac1 [2] = target: T1, Epac1; assay: Epac activation assay, Epac1; assay type: biochemical

T2 sequence (P31321 whole entry): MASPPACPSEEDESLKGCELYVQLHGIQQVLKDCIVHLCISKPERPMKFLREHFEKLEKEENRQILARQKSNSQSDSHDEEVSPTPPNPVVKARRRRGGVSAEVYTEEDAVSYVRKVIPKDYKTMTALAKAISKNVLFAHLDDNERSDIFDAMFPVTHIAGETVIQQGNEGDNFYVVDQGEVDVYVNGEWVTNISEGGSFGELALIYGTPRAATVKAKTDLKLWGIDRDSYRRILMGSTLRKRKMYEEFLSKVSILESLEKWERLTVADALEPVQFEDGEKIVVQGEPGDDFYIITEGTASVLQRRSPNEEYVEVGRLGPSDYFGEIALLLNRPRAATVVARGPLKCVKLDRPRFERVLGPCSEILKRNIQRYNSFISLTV
T5 sequence (P10644 whole entry): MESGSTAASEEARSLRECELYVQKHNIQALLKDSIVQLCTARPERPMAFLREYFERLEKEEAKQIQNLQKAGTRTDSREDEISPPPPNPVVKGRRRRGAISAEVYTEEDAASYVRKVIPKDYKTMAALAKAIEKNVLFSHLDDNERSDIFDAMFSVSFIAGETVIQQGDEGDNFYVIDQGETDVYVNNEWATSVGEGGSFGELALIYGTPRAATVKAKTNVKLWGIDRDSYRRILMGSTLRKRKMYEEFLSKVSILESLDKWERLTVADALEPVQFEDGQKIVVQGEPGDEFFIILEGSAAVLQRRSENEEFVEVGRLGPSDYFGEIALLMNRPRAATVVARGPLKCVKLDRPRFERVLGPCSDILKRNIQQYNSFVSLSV
T3 sequence (P31323 whole entry): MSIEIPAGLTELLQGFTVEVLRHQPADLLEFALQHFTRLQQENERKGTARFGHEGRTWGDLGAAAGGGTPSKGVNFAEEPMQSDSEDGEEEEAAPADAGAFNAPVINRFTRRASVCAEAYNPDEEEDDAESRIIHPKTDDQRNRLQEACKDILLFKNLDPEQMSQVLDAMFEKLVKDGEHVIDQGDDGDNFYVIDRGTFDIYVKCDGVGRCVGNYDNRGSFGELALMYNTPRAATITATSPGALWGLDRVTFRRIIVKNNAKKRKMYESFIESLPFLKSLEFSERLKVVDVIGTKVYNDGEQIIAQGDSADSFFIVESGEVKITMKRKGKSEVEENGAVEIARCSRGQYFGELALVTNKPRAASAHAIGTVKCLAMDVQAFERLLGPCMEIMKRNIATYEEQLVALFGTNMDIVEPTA
T4 sequence (P13861 whole entry): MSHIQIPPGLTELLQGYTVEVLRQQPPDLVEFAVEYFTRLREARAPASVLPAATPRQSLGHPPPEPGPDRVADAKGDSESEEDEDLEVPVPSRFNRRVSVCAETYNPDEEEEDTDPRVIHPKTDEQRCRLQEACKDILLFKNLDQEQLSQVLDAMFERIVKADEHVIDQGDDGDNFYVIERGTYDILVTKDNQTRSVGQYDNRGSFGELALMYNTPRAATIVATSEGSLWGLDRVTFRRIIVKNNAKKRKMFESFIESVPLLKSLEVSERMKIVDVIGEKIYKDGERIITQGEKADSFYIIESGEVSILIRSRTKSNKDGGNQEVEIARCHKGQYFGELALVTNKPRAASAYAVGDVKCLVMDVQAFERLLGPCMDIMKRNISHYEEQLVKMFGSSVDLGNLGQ

Structure (SMILES): Nc1ncnc2c1ncn2C1OC2COP(O)(=S)OC2C1O (stereo not shown) [S-000, Sp-cAMPS]
- AC50 (Epac1 [1]): 90 µM
- Rel. kmax (Epac1 [1]): 1.4^c

Structure (SMILES): COC1C2OP(=O)(O)OCC2OC1n1c(Sc2ccc(Cl)cc2)nc2c(N)ncnc21 [D-007, 8-pCPT-2′-O-Me-cAMP, reference compound]
- AC50 (Epac1 [1]): 1.8 µM
- EC50 (PKA-Iβ; PKA-Iβ, read-out: Kact): 18 µM
- A (PKA activity) (PKA-Iβ; concentration 1 μM): 5.38 U/mg
- A (PKA activity) (PKA-Iβ; concentration 1.00E+01 μM): 9.18 U/mg
- A (PKA activity) (PKA-Iβ; concentration 1.00E+03 μM): 1.84E+01 U/mg
- A (PKA activity) (PKA-Iβ; concentration 1.00E-01 μM): 5.43 U/mg
- A (PKA activity) (PKA-Iβ; concentration 1.00E-03 μM): 4.7 U/mg
- A (PKA activity) (PKA-Iβ; concentration 1.00E-05 μM): 4.53 U/mg
- A (PKA activity) (PKA-Iβ; concentration 2.50E+01 μM): 1.31E+01 U/mg
- A (PKA activity) (PKA-Iβ; concentration 2.50E+02 μM): 1.60E+01 U/mg
- A (PKA activity) (PKA-Iβ; concentration 2.50E+03 μM): 1.79E+01 U/mg
- EC50 (PKA-IIβ; PKA-IIβ, read-out: Kact): 50 µM
- A (PKA activity) (PKA-IIβ; concentration 1 μM): 6.99 U/mg
- A (PKA activity) (PKA-IIβ; concentration 1.00E+01 μM): 1.06E+01 U/mg
- A (PKA activity) (PKA-IIβ; concentration 1.00E-01 μM): 6.554 U/mg
- A (PKA activity) (PKA-IIβ; concentration 1.00E-05 μM): 2.8563 U/mg
- A (PKA activity) (PKA-IIβ; concentration 2.50E+02 μM): 1.60E+01 U/mg
- A (PKA activity) (PKA-IIβ; concentration 5.00E+01 μM): 1.46E+01 U/mg
- A (PKA activity) (PKA-IIβ; concentration 5.00E+02 μM): 1.87E+01 U/mg
- EC50 (PKA-IIα; PKA-IIα, read-out: Kact): > 70 µM
- A (PKA activity) (PKA-IIα; concentration 1 μM): 7.998 U/mg
- A (PKA activity) (PKA-IIα; concentration 1.00E+01 μM): 1.14E+01 U/mg
- A (PKA activity) (PKA-IIα; concentration 1.00E+03 μM): 1.97E+01 U/mg
- A (PKA activity) (PKA-IIα; concentration 1.00E-01 μM): 4.917 U/mg
- A (PKA activity) (PKA-IIα; concentration 1.00E-02 μM): 4.453 U/mg
- A (PKA activity) (PKA-IIα; concentration 1.00E-03 μM): 5.045 U/mg
- A (PKA activity) (PKA-IIα; concentration 1.00E-04 μM): 4.937 U/mg
- A (PKA activity) (PKA-IIα; concentration 1.00E-05 μM): 3.782 U/mg
- A (PKA activity) (PKA-IIα; concentration 2.50E+02 μM): 1.57E+01 U/mg
- A (PKA activity) (PKA-IIα; concentration 5.00E+01 μM): 1.39E+01 U/mg
- A (PKA activity) (PKA-IIα; concentration 5.00E+02 μM): 1.77E+01 U/mg
- A (PKA activity) (PKA-IIα; concentration […]): 9.518 U/mg
- EC50 (PKA-Iα; PKA-Iα, read-out: Kact): 14 µM
- A (PKA activity) (PKA-Iα; concentration 1 μM): 3.924 U/mg
- A (PKA activity) (PKA-Iα; concentration 1.00E+01 μM): 1.06E+01 U/mg
- A (PKA activity) (PKA-Iα; concentration 1.00E+02 μM): 1.58E+01 U/mg
- A (PKA activity) (PKA-Iα; concentration 1.00E-01 μM): 3.7714 U/mg
- A (PKA activity) (PKA-Iα; concentration 1.00E-03 μM): 3.6515 U/mg
- A (PKA activity) (PKA-Iα; concentration 1.00E-05 μM): 2.6923 U/mg
- A (PKA activity) (PKA-Iα; concentration 2.50E+01 μM): 1.22E+01 U/mg
- A (PKA activity) (PKA-Iα; concentration 2.50E+02 μM): 1.83E+01 U/mg
- A (PKA activity) (PKA-Iα; concentration 5.00E+02 μM): 1.79E+01 U/mg
- A (PKA activity) (PKA-Iα; concentration […]): 7.9352 U/mg
- kobs (Epac1 [2]; 0.01 μM compound): 4.6e-05 s⁻¹
- kobs (Epac1 [2]; 0.05 μM compound): 0.000133 s⁻¹
- kobs (Epac1 [2]; 0.08 μM compound): 0.000193 s⁻¹
- kobs (Epac1 [2]; 0.1 μM compound): 0.000213 s⁻¹
- kobs (Epac1 [2]; 0.2 μM compound): 0.000391 s⁻¹
- kobs (Epac1 [2]; 0.3 μM compound): 0.000569 s⁻¹
- kobs (Epac1 [2]; 0.4 μM compound): 0.000728 s⁻¹
- kobs (Epac1 [2]; 0.5 μM compound): 0.000822 s⁻¹
- kobs (Epac1 [2]; 0.6 μM compound): 0.000999 s⁻¹
- kobs (Epac1 [2]; 0.7 μM compound): 0.00113 s⁻¹
- kobs (Epac1 [2]; 0.8 μM compound): 0.00123 s⁻¹
- kobs (Epac1 [2]; 1 μM compound): 0.00137 s⁻¹
- kobs (Epac1 [2]; 2 μM compound): 0.00219 s⁻¹
- kobs (Epac1 [2]; 3 μM compound): 0.00266 s⁻¹
- kobs (Epac1 [2]; 4 μM compound): 0.00283 s⁻¹
- kobs (Epac1 [2]; 5 μM compound): 0.00293 s⁻¹
- kobs (Epac1 [2]; 6 μM compound): 0.00312 s⁻¹
- kobs (Epac1 [2]; 7 μM compound): 0.00321 s⁻¹
- kobs (Epac1 [2]; 8 μM compound): 0.00328 s⁻¹
- kobs (Epac1 [2]; 20 μM compound): 0.00351 s⁻¹
- kobs (Epac1 [2]; 30 μM compound): 0.00364 s⁻¹
- kobs (Epac1 [2]; 40 μM compound): 0.00378 s⁻¹
- kobs (Epac1 [2]; 50 μM compound): 0.00348 s⁻¹
- kobs (Epac1 [2]; 60 μM compound): 0.00363 s⁻¹
- kobs (Epac1 [2]; 70 μM compound): 0.0036 s⁻¹
- kobs (Epac1 [2]; 80 μM compound): 0.00359 s⁻¹
- kobs (Epac1 [2]; 100 μM compound): 0.00349 s⁻¹
- potency relative to cAMP by activation potential (times more potently than cAMP) (Epac1 [2]; Epac1): 100 times
